Results as given in patent US9359338B2, “Cyclopropanecarboxamido-substitute aromatic compounds as anti-tumor agents” (Crown Bioscience Inc. (Taiwan), priority 2012, dated 2016).

Columns and labels:
KDR kinase (790-1356 AA) = KDR kinase (790-1356 AA) (Homo sapiens (Human), UniProt P35968); assay: Inhibitory activity at KDR kinase (Lance Ultra Ulight-TK assay); type: biochemical
Summary of the method: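 TR-FRET (Eu-anti-phosphotyrosine PT66) with 20 nM KDR preincubated with compound 20 min at 30 °C in HEPES pH 7.5 buffer with Mg2+/Mn2+, 0.5% DMSO.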

B-Raf kinase = B-Raf kinase (Homo sapiens (Human), UniProt P15056); assay: Inhibitory activity at B-Raf kinase (ADP-GLO assay); type: biochemical
Sequence of B-Raf kinase (P15056 416-766): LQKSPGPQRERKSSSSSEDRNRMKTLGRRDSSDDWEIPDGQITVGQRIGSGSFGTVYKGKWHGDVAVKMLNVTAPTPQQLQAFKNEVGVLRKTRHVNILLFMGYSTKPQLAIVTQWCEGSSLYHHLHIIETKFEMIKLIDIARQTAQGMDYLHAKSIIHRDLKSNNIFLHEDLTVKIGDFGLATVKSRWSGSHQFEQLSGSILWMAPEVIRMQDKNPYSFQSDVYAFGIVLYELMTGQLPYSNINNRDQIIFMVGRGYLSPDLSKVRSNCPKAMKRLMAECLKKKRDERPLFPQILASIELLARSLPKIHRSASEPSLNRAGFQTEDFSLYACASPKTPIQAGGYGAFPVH
Protocol: Inhibitory Activity of Compounds at B-Raf Kinase
• [Experimental method]: Use ADP-GLO™ assay kit from Promega to evaluate the inhibitory activity of compounds at B-Raf • [Instrument]: PerKinElmer's ENVISION plate reader • [Material]: Optiplate-384 well plate (PerKinElmer), kinase buffer (50 mM Hepes pH7.5, 1 mM EGTA, 2 mM DTT, 10 mM Mg^2+, 0.05% BSA), B-Raf kinase (Millipore, catalogue #14-530-K), GST-MEK1 substrate (Carna, catalogue #07-141-10), Super pure ATP (Promega), ADP-GLO™ assay kit (Promega, catalogue # V9102), DMSO (Sigma, catalogue #34869), purified water (Millipore, type: Milli-Q). • [Study conditions]: Mix B-Raf kinase (final concentration: 5 nM) and compound (DMSO final concentration: 0.25%) and preincubate at 30° C. for 20 min, then add ATP (final concentration: 6 μM) and reaction substrate (final concentration: 30 nM), React for 2 hrs at 30° C. After reaction, add ADP-GLO™ reagent, react for 40 min at room temperature, then add ADP-GLO™ detecting agent, react for 30 min at room temperature. After that, use ENVSION to measure the […]. • [Samples]: Compounds in the examples and Sorafenib (positive control) • [Data analysis]: Use CBIS data analysis software to calculate IC50 values

PLC-PRF-5 cells = assay: Inhibition of proliferation of PLC-PRF-5 cells (ATPlite); type: cell-based; conditions: Homo sapiens, PLC-PRF-5, PLC-PRF-5 cells; read-out: PLC-PRF-5 cell proliferation IC50
Summary of the method: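 PLC-PRF-5 cells in DMEM/10% FBS, seeded 2 h before compound; 8-point 3-fold dilutions from 30 μM final top, 0.3% DMSO. After 96 h at 37 °C, 5% CO2, ATP content read by ATPlite luminescence; IC50 calculated.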

pERK in MDA-MB-231 cells = assay: Inhibitory activity at pERK (In Cell Western, MDA-MB-231 cells); type: cell-based; conditions: Homo sapiens, MDA-MB-231, MDA-MB-231 cells; read-out: MDA-MB-231 pERK IC50
Summary of the method: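 MDA-MB-231 cells were treated 2 h at 37 °C with 8 compound concentrations in 3-fold dilutions from 30 μM top (0.3% DMSO, DMEM with 0.1% BSA). Cells were then fixed, methanol-permeabilized and immunostained for pERK with PI counterstain. Fluorescence was read on Acumen and IC50 calculated.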

Sequence of KDR kinase (790-1356 AA) (P35968 790-1356): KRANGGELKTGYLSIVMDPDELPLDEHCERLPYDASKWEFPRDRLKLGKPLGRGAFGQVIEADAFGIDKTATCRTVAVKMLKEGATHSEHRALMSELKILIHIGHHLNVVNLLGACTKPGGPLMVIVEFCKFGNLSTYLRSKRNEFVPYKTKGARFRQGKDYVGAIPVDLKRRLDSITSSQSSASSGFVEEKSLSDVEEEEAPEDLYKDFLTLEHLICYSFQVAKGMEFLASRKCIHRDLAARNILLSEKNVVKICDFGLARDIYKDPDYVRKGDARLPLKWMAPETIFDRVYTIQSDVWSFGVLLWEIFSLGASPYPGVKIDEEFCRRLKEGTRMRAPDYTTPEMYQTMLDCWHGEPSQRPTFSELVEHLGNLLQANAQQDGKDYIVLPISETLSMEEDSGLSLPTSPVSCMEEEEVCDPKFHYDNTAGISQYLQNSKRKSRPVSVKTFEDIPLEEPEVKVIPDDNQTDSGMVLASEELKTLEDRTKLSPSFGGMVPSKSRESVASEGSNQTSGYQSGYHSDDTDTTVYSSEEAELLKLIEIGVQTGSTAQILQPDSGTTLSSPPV

SMILES | IC50 (KDR kinase (790-1356 AA)) [nM] | IC50 (B-Raf kinase) [nM] | IC50 (PLC-PRF-5 cells) [nM] | IC50 (pERK in MDA-MB-231 cells) [nM]
O=C(Nc1ccc(F)c(C(F)(F)F)c1)Nc1ccc(Oc2ccnc(NC(=O)C3CC3)c2)cc1F [Exe. 205] | 25.1 | 13 | 1090 | 9.2
O=C(Nc1cccc(OC(F)(F)F)c1)Nc1ccc(Oc2ccnc(NC(=O)C3CC3)c2)c(F)c1 [Exe. 175] | 4.9 | 9.8 | 270 | 30.5
CN1CCC(Nc2ccc(NC(=O)Nc3ccc(Oc4ccnc(NC(=O)C5CC5)c4)c(F)c3)cc2C(F)(F)F)CC1 [Exe. 168] | 12 | 7.9 | 31 | 11.6
CS(=O)(=O)c1cc(NC(=O)Nc2ccc(Oc3ccnc(NC(=O)C4CC4)c3)cc2)cc(C(F)(F)F)c1 [Exe. 145] | 7.6 | 5.1 | 1670 | 20.7
O=C(Nc1cc(-c2cccnc2)cc(C(F)(F)F)c1)Nc1ccc(Oc2ccnc(NC(=O)C3CC3)c2)c(F)c1 [Exe. 186] | 5 | 27.5 | 640 | 53.3
O=C(Nc1cnc(Oc2ccnc(NC(=O)C3CC3)c2)c(Cl)c1)Nc1ccc(Cl)c(C(F)(F)F)c1 [Exe. 019] | 22.3 | 18.1 | 840 | 172
O=C(Nc1ccc(Oc2ccnc(NC(=O)C3CC3)c2)c(F)c1)Nc1cc(C2CC2)ccc1F [Exe. 058] | 13.7 | 116 | 43 | 30
CC(F)(F)c1cccc(NC(=O)Nc2ccc(Oc3ccnc(NC(=O)C4CC4)c3)cc2F)c1 [Exe. 217] | 9.9 | 8.9 | 178 | 2.3
O=C(Nc1ccc(Oc2ccnc(NC(=O)C3CC3)c2)cc1)Nc1cc(F)cc(C(F)(F)F)c1 [Exe. 141] | 7.1 | 125 | 642 | 40.4
CN1CCN(Cc2cc(NC(=O)Nc3ccc(Oc4ccnc(NC(=O)C5CC5)c4)cc3)cc(C(F)(F)F)c2)CC1 [Exe. 064] | 11.9 | 4.6 | 610 | 
Cc1cc(Oc2cc(NC(=O)C3CC3)ncn2)ccc1NC(=O)Nc1cc(N2CCCC2)cc(C(F)(F)F)c1 [Exe. 077] | 14.3 |  | 16500 | 169
Cc1ccc(NC(=O)Nc2ccc(Oc3ccnc(NC(=O)C4CC4)c3)c(F)c2)cc1C(F)(F)F [Exe. 154] | 11.3 |  | 130 | 14.9
O=C(Nc1cc(F)cc(Oc2cc(NC(=O)C3CC3)ncn2)c1)Nc1cc(F)cc(C(F)(F)F)c1 [Exe. 098] | 105 |  | 8400 | 752
CN1C(=O)C2(CC2)c2cc(NC(=O)Nc3ccc(Oc4ccnc(NC(=O)C5CC5)c4)cc3)ccc21 [Exe. 066] | 8 |  | 2500 | 16
O=C(Nc1cc(F)cc(Oc2cc(NC(=O)C3CC3)ncn2)c1)Nc1ccc(F)c(C(F)(F)F)c1 [Exe. 097] | 62.8 |  | 9100 | 137
Cc1cc(Oc2cc(NC(=O)C3CC3)ncn2)c(F)cc1NC(=O)Nc1ccc(Cl)c(C(C)(F)F)c1 [Exe. 091] | 12.8 |  | 7600 | 53
Cc1cc(Oc2ccnc(NC(=O)C3CC3)c2)ccc1NC(=O)Nc1cc(F)cc(C(F)(F)F)c1 [Exe. 192] | 17.5 |  | 2910 | 20
Cc1cc(Oc2cc(NC(=O)C3CC3)ncn2)ccc1NC(=O)Nc1cccc(OC(F)(F)F)c1 [Exe. 079] | 14 |  | 6000 | 80
O=C(Nc1cc(C2CCN(C3CC3)CC2)cc(C(F)(F)F)c1)Nc1ccc(Oc2ccnc(NC(=O)C3CC3)c2)c(F)c1 [Exe. 060] | 34.3 |  | 1510 | 324
CN(c1ccnc(NC(=O)C2CC2)c1)c1ccc(NC(=O)Nc2cccc(C(F)(F)F)c2)c(F)c1 [Exe. 203] | 16.2 |  | 539 | 61
O=C(Nc1cccc(C(F)(F)F)c1)Nc1ccc(Nc2ccnc(NC(=O)C3CC3)c2)cc1F [Exe. 204] | 9.3 |  | 1850 | 72
O=C(Nc1cc(N2CCN(CCF)CC2)cc(C(F)(F)F)c1)Nc1ccc(Oc2ccnc(NC(=O)C3CC3)c2)c(F)c1 [Exe. 053] | 13 |  | 686 | 65.1

SMILES | IC50 (KDR kinase (790-1356 AA)) [nM] | IC50 (B-Raf kinase) [nM] | IC50 (PLC-PRF-5 cells) [nM] | IC50 (pERK in MDA-MB-231 cells) [nM]
O=C(Nc1cccc(Oc2cc(NC(=O)C3CC3)ncn2)c1)Nc1ccc(Cl)c(C(F)(F)F)c1 [Exe. 012] | 9.9 |  | 10300 | 71
CC(F)(F)c1cc(NC(=O)Nc2ccc(Oc3ccnc(NC(=O)C4CC4)c3)cc2)ccc1F [Exe. 150] | 11.5 |  | 737 | 20.4
Cc1cc(NC(=O)Nc2cc(F)cc(C(C)(F)F)c2)ccc1Oc1cc(NC(=O)C2CC2)ncn1 [Exe. 115] | 9.5 |  | 1310 | 300
Cc1cc(Oc2cc(NC(=O)C3CC3)ncn2)ccc1NC(=O)Nc1cc(F)cc(C(C)(F)F)c1 [Exe. 083] | 14.3 |  | 20400 | 609
O=C(Nc1cc(-c2cn[nH]c2)cc(C(F)(F)F)c1)Nc1ccc(Oc2ccnc(NC(=O)C3CC3)c2)c(F)c1 [Exe. 238] | 15.6 |  | 2220 | 57.3
O=C(Nc1ccc(Oc2cc(NC(=O)C3CC3)ncn2)cc1)Nc1cc(F)cc(C(F)(F)F)c1 [Exe. 101] | 12.5 |  | 2600 | 682
Cc1cc(Oc2cc(NC(=O)C3CC3)ncn2)ccc1NC(=O)Nc1cc(OC(F)(F)F)ccc1F [Exe. 080] | 8.1 |  | 3040 | 29
O=C(Nc1ccc(Oc2ccnc(NC(=O)C3CC3)c2)c(F)c1)Nc1ccc(F)c(OC(F)(F)F)c1 [Exe. 177] | 9.5 |  | 690 | 37
O=C(Nc1cccc(Oc2cc(NC(=O)C3CC3)ncn2)c1)Nc1cccc(C(F)(F)F)c1 [Exe. 120] | 12 |  | > 30000 | 617
O=C(Nc1cc(F)cc(C(F)(F)F)c1)Nc1ccc(Oc2ccnc(NC(=O)C3CC3)c2)c(F)c1 [Exe. 155] | 12.1 |  | 571 | 195
CCN1CCN(c2cc(NC(=O)Nc3ccc(Oc4ccnc(NC(=O)C5CC5)c4)c(F)c3)cc(C(F)(F)F)c2)CC1 [Exe. 055] | 14.5 |  | 420 | 284
Cc1cc(NC(=O)Nc2ccc(F)c(C(F)(F)F)c2)cc(Oc2cc(NC(=O)C3CC3)ncn2)c1 [Exe. 092] | 192 |  | 17200 | 57
O=C(Nc1cc(OC2CCOC2)cc(C(F)(F)F)c1)Nc1ccc(Oc2ccnc(NC(=O)C3CC3)c2)c(F)c1 (stereo not drawn) [Exe. 039] | 14.2 |  | 500 | 54.4
Cc1cc(Oc2cc(NC(=O)C3CC3)ncn2)ccc1NC(=O)Nc1ccc(C)c(C(F)(F)F)c1 [Exe. 072] | 8.9 |  | 7000 | 12
O=C(Nc1cccc(Oc2cc(NC(=O)C3CC3)ncn2)c1)Nc1ccc(F)c(C(F)(F)F)c1 [Exe. 119] | 14.9 |  | 18800 | 184
O=C(Nc1ccc(Oc2ccnc(NC(=O)C3CC3)c2)cc1F)Nc1cc(OC(F)(F)F)ccc1F [Exe. 214] | 9.4 |  | 180 | 11.5
N#Cc1cc(NC(=O)Nc2ccc(Cl)c(C(F)(F)F)c2)ccc1Oc1cc(NC(=O)C2CC2)ncn1 [Exe. 006] | 25 |  | 5380 | 281
Cc1ccc(NC(=O)Nc2ccc(Oc3ccnc(NC(=O)C4CC4)c3)cc2F)cc1C(F)(F)F [Exe. 207] | 10.2 |  | 71 | 8.3
Cc1cc(NC(=O)Nc2cccc(C(F)(F)F)c2)ccc1Oc1cc(NC(=O)C2CC2)ncn1 [Exe. 112] | 14.5 |  | 2000 | 85
O=C(Nc1ccc(Oc2ccnc(NC(=O)C3CC3)c2)c(F)c1)Nc1cc(C(F)(F)F)cc(N2CCOCC2)n1 [Exe. 174] | 5.4 |  | 240 | 60.6
CC(F)(F)c1cc(NC(=O)Nc2ccc(Oc3cc(NC(=O)C4CC4)ncn3)c(F)c2)ccc1F [Exe. 106] | 10.4 |  | 850 | 465
